Assay results reported in patent US20250345370A1, “MICROBIAL LIBERATION OF N-METHYLSEROTONIN FROM ORANGE FIBER” (Washington University, priority 2022, published 2025).

Columns and labels:
[1] = Targeted LC-QqQ-MS of N-methylserotonin levels in gut contents, tissues, plasma and feces of gnotobiotic mice
[2] = N-methylserotonin in drinking water of germ-free mice: body weight, epididymal fat, intake, survival; type: in vivo, germ-free C57BL/6J mice; details: for epididymal fat mass: vs untreated controls
Method: (§1) For experiments involving administration of N-methylserotonin to germ-free mice, a stock solution of the compound (100 mg/mL, Santa Cruz Biotechnologies) was prepared in sterile water and filter sterilized ([…]; Nalgene). The outer surface of tubes containing the stock solution was sterilized with Clidox (Pharmacal) and the tubes were introduced into gnotobiotic isolators using standard procedures. The stock solution was then diluted in darkened glass water bottles (Ancare) in order to administer doses of 1 mg/kg/day or 50 mg/kg/day (based on an experimentally determined average consumption of 5 mL of water/day/mouse). Every four days, bottles were replaced with new ones containing fresh N-methylserotonin. Each of the three arms of the experiment, including the control arm where unsupplemented drinking water was administered, consisted of 5 mice.
(§2) Fecal samples and body weights were collected weekly, while food and water intake were monitored daily by comparing pellet mass in the food hopper and the volume of water in water bottles at the beginning and end of a 24 h period and dividing these values by the number of mice per cage. All animals were euthanized between 0830 h and 0930 h without prior fasting. Luminal contents from the proximal and distal halves of the small intestine, the cecum and the colon, host tissues (liver, epididymal fat pads, gastrocnemius muscle, the distal quarter of the small intestine (ileum), cecum and entire colon) plus serum were collected, flash frozen in liquid nitrogen and stored at −80° C. prior to analyses.
Host effects of N-methylserotonin. To characterize the effects of N-methylserotonin on host physiology and metabolism, 12-week-old germ-free C57BL/6J mice were fed the unsupplemented HiSF-LoFV diet and administered N-methylserotonin via their drinking water at doses of 1 mg/kg/day or 50 mg/kg/day for 21 days (FIG. 2A). The 1 mg/kg/day dose was experimentally determined to result in fecal N-methylserotonin levels that were equivalent to those documented in mice colonized with the 14-member community consuming the orange fiber-supplemented HiSF-LoFV diet (133.5±15 ng/g versus 131±19 ng/g feces, respectively; p=0.92, unpaired t-test). The 50 mg/kg/d dose was equivalent to the estimated total amount of N-methylserotonin consumed each day in the 10% orange fiber-containing diet (based on the yield obtained after in vitro enzymatic digestion of the fiber with T. reesei cellulase).

[3] = Tissue metabolites (liver glycogen and precursors, colonic glutamate) in germ-free mice given N-methylserotonin; type: in vivo, germ-free C57BL/6J mice
Method: as §1, §2
Other metabolites—Tissue (at least 10 mg) was placed in a reinforced 2 mL tube. A 20 times weight volume of extraction solvent was added (40% acetonitrile, 40% methanol, 20% water) and the tissue was disrupted as described herein. Samples were centrifuged at 12,000×g for 10 minutes at 4° C. A 200 μL aliquot of the resulting supernatant was transferred to a 2 mL glass tube and dried in a speed vacuum at room temperature (25° C.) for two hours. The dry extract was reconstituted in 100 μL of 90% water/10% acetonitrile and stored at −4° C. prior to injection; 5 μL was injected into a 1290 Infmity II UHPLC system coupled to a 6470 Triple Quadrupole LC/MS system equipped with a Jet Stream electrospray ionization source (Agilent Technologies). Chromatographic separation was performed on an Agilent ZORBAX Extend C18, […], 1.8 μm column, using the following gradient conditions: mobile phase A, 10 mM tributylamine and 15 mM acetic acid in 3% methanol (v/v); mobile phase B, 10 mM tributylamine and 15 mM acetic acid in 100% methanol; 0% solvent B (0-2 minutes); 0-20% solvent B (2-7.5 minutes); 20-45% solvent B (7.5-13 minutes); 45-99% solvent B (13-20 minutes); 99-0% solvent B (20-22 minutes) at a flow rate of 0.25 mL/minute. […] Transitions were taken from the Agilent Metabolomics dMRM Database.
Glutamate is known to […] Arntl when directly applied to tissue slices. Knockout of the Per3 homolog Per2 reduces expression of the glutamate transporter (Eaatl, Slc1A3) and uptake of glutamate in the brain. These observations raise the possibility that one way that N-methylserotonin might influence colonic circadian regulators is through its effects on glutamate levels in this tissue.

[4] = target: 5-Htr2A (Homo sapiens, UniProt P28223); details: in vitro studies; cited from earlier work
[5] = 14-member consortium, 10% orange fiber diet

Chain of 5-Htr2A (P28223 whole entry): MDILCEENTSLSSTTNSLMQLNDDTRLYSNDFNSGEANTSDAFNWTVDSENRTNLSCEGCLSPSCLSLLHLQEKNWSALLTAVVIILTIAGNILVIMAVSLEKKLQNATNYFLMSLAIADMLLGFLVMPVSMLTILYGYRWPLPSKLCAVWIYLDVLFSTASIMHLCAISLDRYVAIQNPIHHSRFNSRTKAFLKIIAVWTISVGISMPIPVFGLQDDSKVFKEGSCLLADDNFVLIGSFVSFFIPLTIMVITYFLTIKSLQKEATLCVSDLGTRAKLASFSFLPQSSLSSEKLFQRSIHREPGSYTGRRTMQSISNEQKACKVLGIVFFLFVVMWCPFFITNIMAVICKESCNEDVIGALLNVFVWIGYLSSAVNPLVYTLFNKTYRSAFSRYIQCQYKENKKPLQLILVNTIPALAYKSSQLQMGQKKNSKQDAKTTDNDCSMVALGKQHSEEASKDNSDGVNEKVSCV

CNCCc1c[nH]c2ccc(O)cc12 [N-methylserotonin]
fecal N-methylserotonin levels ([1]; 14-member community, orange fiber-supplemented HiSF-LoFV diet): 131±19 ng/g feces
N-methylserotonin in cecal contents [1, 5]: 173 ± 14 ng/g
N-methylserotonin in cecal tissue [1, 5]: 130 ± 13 ng/g
N-methylserotonin in colonic contents [1, 5]: 139 ± 13 ng/g
N-methylserotonin in colonic tissue [1, 5]: 164 ± 25 ng/g
N-methylserotonin in plasma [1, 5]: 1.22 ± 0.76 ng/mL
N-methylserotonin in small intestine, liver, gastrocnemius muscle and kidney [1, 5]: < 1 ng/g
N-methylserotonin in cecal or colonic contents or intestinal and extra-intestinal tissues ([1]; 14-member consortium, 10% pea fiber diet, below limits of detection): < 0.5 ng/g
fecal N-methylserotonin levels ([1]; germ-free mice, 1 mg/kg/day in drinking water): 133.5 ± 15 ng/g
epididymal fat mass ([2]; 1 mg/kg/day (lower dose)): not the lower dose
epididymal fat mass ([2]; 50 mg/kg/day (higher dose)): statistically significant reduction
mortality ([2]; 50 mg/kg/day group, 5 mice): one animal died within the first week
weight gain ([2]; drinking water, 21 days, vs untreated): statistically significant decrease in weight gain
food and water intake ([2]; measured daily, all three groups): remained consistent
liver glucose-6-phosphate ([3]; 1 mg/kg/day): the lower dose did not
liver glycogen ([3]; 1 mg/kg/day): the lower dose did not
liver uridine ([3]; 1 mg/kg/day): the lower dose did not
liver uridine monophosphate ([3]; 1 mg/kg/day): the lower dose did not
liver glucose-6-phosphate ([3]; 50 mg/kg/day): statistically significant decrease
liver glycogen ([3]; 50 mg/kg/day): statistically significant increases
liver uridine ([3]; 50 mg/kg/day): statistically significant decreases
liver uridine monophosphate ([3]; 50 mg/kg/day): statistically significant decreases
glutamate levels in colonic tissue ([3]; 50 mg/kg/day, untreated controls 11±0.9): 21±1.4 ng/mg tissue
binding [4]: binds
